Experimental data taken from US11896592B2, “Certain triazolopyridines and triazolopyrazines, compositions thereof and methods of use therefor” (Hutchison Medipharma Limited, priority 2009, dated 2024).

target: T1, Recombinant human Met (c-Met) (Homo sapiens, UniProt P08581); test: Inhibition of c-Met kinase activity using Transcreener FP assay; assay type: biochemical; settings: Poly E4Y substrate, 28° C. 45 min, read-out: IC50, inhibition of c-Met kinase activity
T1 construct: purchased Invitrogen PV3143
T1 sequence (P08581 956-1390 limits assumed): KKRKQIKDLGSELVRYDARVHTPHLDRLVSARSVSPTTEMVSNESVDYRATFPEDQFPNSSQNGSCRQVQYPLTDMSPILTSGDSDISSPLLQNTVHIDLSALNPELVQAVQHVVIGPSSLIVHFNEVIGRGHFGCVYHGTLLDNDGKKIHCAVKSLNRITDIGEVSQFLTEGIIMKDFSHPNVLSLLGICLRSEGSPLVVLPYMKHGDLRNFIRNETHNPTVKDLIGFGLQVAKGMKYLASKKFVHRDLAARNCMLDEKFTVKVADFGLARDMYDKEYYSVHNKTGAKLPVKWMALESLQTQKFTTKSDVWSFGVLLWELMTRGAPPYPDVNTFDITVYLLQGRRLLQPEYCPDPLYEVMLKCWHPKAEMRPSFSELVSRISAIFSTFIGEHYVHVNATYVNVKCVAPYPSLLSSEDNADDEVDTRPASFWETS
Method: Compound dilution: dilute test articles to 5 folds of the testing concentration using 20% DMSO.
The mixture is kept on ice until use;
Prepare ATP standard curve stock as following:
3. Enzymatic reaction: in 96-well reaction plate
Add 5 μL of test article or 5 μL of 20% DMSO or 5 μL of 500 mM EDTA;
Add 10 μL of Enzyme/Substrate stock;
Add 10 μL of ATP Diluent to begin the enzyme reaction and mix on plate shaker;
Add 5 μL of 20% DMSO, 10 μL of assay buffer and 10 μL of ATP standard curve stock into standard curve wells;
Gently shake at 28° C. for 45 min.
4. Stop reaction and detect ADP
Prepare Detection Mix: According to the procedures described in the Assay kit, Alexa633 tracer, ADP antibody and stop & detect buffer were added into H2O and mixed thoroughly. Prepare Tracer Only control: According to the procedures described in the Assay kit, ADP Alexa633 tracer and stop & detect buffer were added to H2O and mixed throughly.
Prepare No Tracer control: According to the procedures described in the Assay kit, the stop & detect buffer was diluted with H2O;
Add 25 μL of detection mix, Tracer Only control and No Tracer control into corresponding wells, respectively;
The reaction plate was gently shaken at 28° C. for 1 h;
Florescence polarization (FP) was measured on TECAN F500. Excitation wavelength: 610 nm, Emission wavelength: 670 nm.
Compound well [ADP] represents the ADP concentration of the compound well. Positive control well [ADP] represents the ADP concentration of the 20% DMSO well. Conversion of mP value to ADP concentration is based on the formula which is determined by standard curve.
IC50: calculated using XL-Fit 2.0 software.

SMILES | IC50 [nM]
CC(O)Cn1cc(-c2ccc3nnn(Cc4ccc5ncccc5c4)c3n2)cn1 (stereo not drawn) [Compound 100] | 100 to 1000
CN1CCC(n2cc(-c3ccc4nnn(Cc5ccc6ncccc6c5)c4n3)cn2)CC1 [Compound 101] | 100 to 1000
N#Cc1ccc(-c2ccc3nnn(Cc4ccc5ncccc5c4)c3n2)cn1 [Compound 103] | 100 to 1000
CN(C)Cc1ccc(-c2ccc3nnn(Cc4ccc5ncccc5c4)c3n2)s1 [Compound 105] | 100 to 1000
COCCOc1cc(-c2ccc3nnn(Cc4ccc5ncccc5c4)c3n2)ccn1 [Compound 107] | 100 to 1000
Cn1cnc(-c2ccc3nnn(Cc4ccc5ncccc5c4)c3n2)c1 [Compound 108] | 100 to 1000
OCCn1cnc(-c2ccc3nnn(Cc4ccc5ncccc5c4)c3n2)c1 [Compound 109] | 100 to 1000
COCCNc1cc(-c2ccc3nnn(Cc4ccc5ncccc5c4)c3n2)ccn1 [Compound 110] | 100 to 1000
c1cnc2[nH]cc(Cn3nnc4ccc(-c5cnn(C6CCNCC6)c5)nc43)c2c1 [Compound 116] | 100 to 1000
c1cnc2ccc(Cn3nnc4ccc(-c5cnn(C6CCOCC6)c5)nc43)cc2c1 [Compound 118] | 100 to 1000
OC1CCCC1n1cc(-c2ccc3nnn(Cc4ccc5ncccc5c4)c3n2)cn1 (stereo not drawn) [Compound 119] | 100 to 1000
Cn1cc(-c2ccc3nnn(Cc4ccc5ncnn5c4)c3n2)cn1 [Compound 120] | 100 to 1000
FC(F)(F)Cn1cc(-c2ccc3nnn(Cc4ccc5ncnn5c4)c3n2)cn1 [Compound 121] | 100 to 1000
Cn1cc(-c2ccc3nnn(C4(c5ccc6ncccc6c5)CC4)c3n2)cn1 [Compound 122] | 100 to 1000
OCCn1cc(-c2ccc3nnn(C4(c5ccc6ncccc6c5)CC4)c3n2)cn1 [Compound 123] | 100 to 1000
OCCn1cc(-c2ccc3nnn(Cc4ccc5ncnn5c4)c3n2)cn1 [Compound 126] | 100 to 1000
OCCn1cc(-c2ccc3nnn(Cc4n[nH]c5ncccc45)c3n2)cn1 [Compound 138] | 100 to 1000

SMILES | IC50 [nM]
Cn1cc(-c2ccc3nnn(Cc4ccc5ncsc5n4)c3n2)cn1 [Compound 142] | 100 to 1000
c1cn2cc(Cn3nnc4ccc(-c5cnn(C6CCOCC6)c5)nc43)ccc2n1 [Compound 143] | 100 to 1000
Cc1cccc(N(C)c2cnc3nnn(Cc4ccc5ncccc5c4)c3n2)n1 [Compound 154] | 100 to 1000
Cc1cncc(Nc2cnc3nnn(Cc4ccc5ncccc5c4)c3n2)c1 [Compound 158] | 1 to 100
Cc1cc(Nc2cnc3nnn(Cc4ccc5ncccc5c4)c3n2)on1 [Compound 160] | 1 to 100
c1cnc2ccc(Cn3nnc4ncc(Nc5ccsc5)nc43)cc2c1 [Compound 161] | 1 to 100
COc1ccc(Nc2cnc3nnn(Cc4ccc5ncccc5c4)c3n2)cn1 [Compound 162] | 1 to 100
Cc1cc(Nc2cnc3nnn(Cc4ccc5ncccc5c4)c3n2)ccn1 [Compound 163] | 1 to 100
Clc1ccc(Nc2cnc3nnn(Cc4ccc5ncccc5c4)c3n2)nc1 [Compound 164] | 1 to 100
c1cnc2ccc(Cn3nnc4ncc(Nc5ccc(N6CCOCC6)cn5)nc43)cc2c1 [Compound 165] | 1 to 100
c1cc(Nc2cnc3nnn(Cc4ccc5ncccc5c4)c3n2)nc(N2CCOCC2)c1 [Compound 166] | 1 to 100
c1ccc(Nc2cnc3nnn(Cc4ccc5ncccc5c4)c3n2)nc1 [Compound 168] | 1 to 100
c1cnc2ccc(Cn3nnc4ncc(Nc5ccncc5)nc43)cc2c1 [Compound 169] | 1 to 100
Clc1cccc(Nc2ccc3nnn(Cc4cc5cnccc5s4)c3n2)c1 [Compound 170] | 100 to 1000
Cc1csc(Nc2cnc3nnn(Cc4ccc5ncccc5c4)c3n2)n1 [Compound 172] | 1 to 100
Cn1cc(Nc2cnc3nnn(Cc4ccc5ncccc5c4)c3n2)cn1 [Compound 173] | 1 to 100
CNC(=O)c1ccnc(Nc2cnc3nnn(Cc4ccc5ncccc5c4)c3n2)c1 [Compound 174] | 100 to 1000

Now from value to compound:

IC50 [nM] | SMILES
1 to 100 | N#Cc1ccc(-c2ccc3nnn(Cc4ccc5ncccc5c4)c3n2)s1 [Compound 102]
1 to 100 | OCc1ccc(-c2ccc3nnn(Cc4ccc5ncccc5c4)c3n2)s1 [Compound 104]
1 to 100 | COCCn1cc(-c2ccc3nnn(Cc4c[nH]c5ncccc45)c3n2)cn1 [Compound 111]
1 to 100 | COc1cccc(-c2ccc3nnn(Cc4c[nH]c5ncccc45)c3n2)c1 [Compound 112]
1 to 100 | CC(c1c[nH]c2ncccc12)n1nnc2ccc(-c3cnn(CCO)c3)nc21 (stereo not drawn) [Compound 113]
1 to 100 | CC(=O)Nc1ccc(-c2ccc3nnn(Cc4c[nH]c5ncccc45)c3n2)cn1 [Compound 115]
1 to 100 | N#CCn1cc(-c2ccc3nnn(Cc4ccc5ncccc5c4)c3n2)cn1 [Compound 117]
1 to 100 | Cn1cc(-c2ccc3nnn(Cc4cc5cccnc5cc4F)c3n2)cn1 [Compound 127]
1 to 100 | OCCn1cc(-c2ccc3nnn(Cc4cc5cccnc5cc4F)c3n2)cn1 [Compound 128]
1 to 100 | Cn1cc(-c2ccc3nnn(Cc4ccc5ncccc5c4F)c3n2)cn1 [Compound 129]
1 to 100 | OCCn1cc(-c2ccc3nnn(Cc4ccc5ncccc5c4F)c3n2)cn1 [Compound 130]
1 to 100 | Cn1cc(-c2ccc3nnn(Cc4cc5[nH]ncc5s4)c3n2)cn1 [Compound 132]
1 to 100 | Cn1cc(-c2ccc3nnn(Cc4ccc5nccn5c4)c3n2)cn1 [Compound 133]
1 to 100 | OCCn1cc(-c2ccc3nnn(Cc4ccc5nccn5c4)c3n2)cn1 [Compound 134]
1 to 100 | CCn1cc(-c2ccc3nnn(Cc4ccc5nccn5c4)c3n2)cn1 [Compound 135]
1 to 100 | CC(C)n1cc(-c2ccc3nnn(Cc4ccc5nccn5c4)c3n2)cn1 [Compound 136]
1 to 100 | CCn1cc(-c2ccc3nnn(Cc4n[nH]c5ncccc45)c3n2)cn1 [Compound 137]
1 to 100 | CCCn1cc(-c2ccc3nnn(Cc4ccc5nccn5c4)c3n2)cn1 [Compound 140]
1 to 100 | FC(F)(F)Cn1cc(-c2ccc3nnn(Cc4ccc5nccn5c4)c3n2)cn1 [Compound 141]
1 to 100 | CC(C)n1cc(-c2ccc3nnn(Cc4ccc5ncccc5c4)c3n2)cn1 [Compound 144]
1 to 100 | c1cnc2ccc(Cn3nnc4ccc(-c5cn[nH]c5)nc43)cc2c1 [Compound 145]
1 to 100 | CCCn1cc(-c2ccc3nnn(Cc4ccc5ncccc5c4)c3n2)cn1 [Compound 146]
1 to 100 | FC(F)(F)Cn1cc(-c2ccc3nnn(Cc4ccc5ncccc5c4)c3n2)cn1 [Compound 147]
1 to 100 | CS(=O)(=O)n1cc(-c2ccc3nnn(Cc4ccc5ncccc5c4)c3n2)cn1 [Compound 150]
1 to 100 | Cn1ccc(Nc2cnc3nnn(Cc4ccc5ncccc5c4)c3n2)n1 [Compound 152, N-(1-methyl-1H-pyrazol-3-yl)-1-(quinolin-6-ylmethyl)-1H-[1,2,3]triazolo-[4,5-b]pyrazin-6-amine]
1 to 100 | Clc1ccnc(Nc2cnc3nnn(Cc4ccc5ncccc5c4)c3n2)c1 [Compound 153]
1 to 100 | Cc1ccc(Nc2cnc3nnn(Cc4ccc5ncccc5c4)c3n2)cn1 [Compound 155]
1 to 100 | COc1cncc(Nc2cnc3nnn(Cc4ccc5ncccc5c4)c3n2)c1 [Compound 156]
1 to 100 | Cc1cccc(Nc2cnc3nnn(Cc4ccc5ncccc5c4)c3n2)n1 [Compound 157]
